1 compound from US11179348B2, “Combination comprising pterostilbene for the treatment of cancer” (FUNDACIÓN UNIVERSIDAD CATÓLICA DE VALENCIA SAN VICENTE …, priority 2015, dated 2021) can be followed below.

Holding throughout (set-up): species or system human
The test system of one test is LNCaP cells. The experiment in a line: GSH levels and glutathione- and oxidative stress-related enzyme activities in LNCaP cells growing in vivo. The following applies: in vivo Pter, day 49. As to the method:
(§1) To measure enzyme activity, isolated tumor cells were homogenized in 0.1 M phosphate buffer (pH 7.2) at 4° C. GCL and GSS activities were measured as described previously (Obrador, E. et al. Hepatology 35, 74-81 (2002)). GPX (selenium dependent) activity was measured as described by Flohé and Gunzler (Flohe, L. & Gunzler, W. A. Methods Enzymol 105, 114-121 (1984)) using H2O2 as a substrate. GSR activity was determined as described by Akerboom and Sies (Akerboom, T. P. et al, Bull Eur Physiopathol Respir 17 Suppl, 221-227 (1981)). GGT activity was measured as described previously (Obrador, E. et al. Hepatology 35, 74-81 (2002)). GST activity was measured using an assay kit from Sigma. TXNRD activity, defined by the concentration of sodium-lipoate (disulfide) reduced to dehydrolipoate (dithiol) per milligram protein, was measured as previously described (Javvadi, P. et al. Cancer Res 70, 1941-1950 (2010)). SOD activity was measured as described by Flohé and Otting (Flohe, L. & Otting, F. Methods Enzymol 105, 93-104 (1984).) using 2 mM cyanide in the assay medium to distinguish mangano-type enzyme (SOD2) from the cuprozinc type (SOD1). CAT activity was analyzed as described by Aebi (Aebi, H. Methods Enzymol 105, 121-126 (1984)). NOX activity was measured by chemiluminescence following the methodology of Wind et al. (Wind, S. et al. Comparative pharmacology of chemically distinct NADPH oxidase inhibitors. Br J Pharmacol 161, 885-898 (2010)). Protein concentration was determined with the Pierce BCA protein assay (Fisher Scientific, Waltham, Mass.).
(§2) GSH, GSSG, NADP^+ and NADPH Determination.
(§3) GSH and GSSG were determined, following procedures previously described (Obrador, E. et al. PLoS One 9, e96466 (2014)), by LC/MS using the same equipment described above for pterostilbene determination. Cell processing was performed according to published methodology, where rapid N-ethylmaleimide derivatization was used to prevent GSH auto-oxidation (Asensi, M. et al. Anal Biochem 217, 323-328 (1994)). NADP^+ and NADPH were quantitated using an assay kit from Sigma (St. Louis, Mo.).
(§4) Isolation of Tumor Cells from Mouse Xenografts Using Enzymatic Digestion and a double Ficoll gradient.
(§5) To maximize the amount of isolated cells, avoiding the use of RFP-transfected cells and subsequent laser microdissection, an alternative methodology was set up. To maximize cell yield and viability the following combination of enzymes was used: collagenase III (200 U/ml; Sigma-Aldrich), DNase I (200 U/ml; Sigma-Aldrich) and trypsin (5 mg/ml; Invitrogen), and a non-enzymatic dissociation buffer (NEDB, Invitrogen). Briefly, mice were killed, and tumors were removed (avoiding skin, muscle and fat) into cold culture media and processed immediately. The tumors were minced into 1-3 mm fragments, which were then incubated with the dissociation solution (see above) for 30 min at 37° C. The tumor fragments were mixed up and down every 10 min using a […] micropipette with a tip cut to a diameter adapted to tissue fragment size. After each incubation period, the fragments were filtered through a […] nylon mesh cell strainer (BD Biosciences, San Diego, Calif., USA). The released cells were centrifuged at 1200 r.p.m. for 2 min and stored in cold CO2-independent medium with 30% FCS at […]. Fresh dissociation solution was added to the remaining tissue fragments for 30 min. Dissociation was stopped when no additional cells were released. The fragments were pushed through a sieve and all cells from all incubation periods were pooled and counted.
(§6) The dissociated cells were layered onto a double Ficoll gradient (Histopaque; Sigma-Aldrich; densities 1.077 and 1.119) and spun at 700 g for 30 min at room temperature. Cells removed from both interfaces were pooled and washed two times in CO2-independent medium and stored at 4° C. Debris and red blood cell elimination was improved with the dual-density gradient. […]

The subject of a further test is SK-OV-3 cells. Put plainly: GSH levels and glutathione- and oxidative stress-related enzyme activities in SK-OV-3 cells growing in vivo. The settings on record: SK-OV-3, in vivo Pter, day 49. As to the method:
as §1, §2, §3, §4, §5, §6

The subject of another test is HT-29 cells. Put plainly: GSH levels and glutathione- and oxidative stress-related enzyme activities in HT-29 cells growing in vivo. The settings on record: HT-29, in vivo Pter, day 21. As to the method:
as §1, §2, §3, §4, §5, §6

In the case of `COc1cc(/C=C/c2ccc(O)cc2)cc(OC)c1` [Pter, trans-3,5-dimethoxy-4′-hydroxystilbene], in the test on LNCaP cells, the CAT was determined as 1.9 ± 0.5 mU/10^6 cells, the GCL was found to be 45 ± 14 mU/10^6 cells, the GSH was 3.7 ± 1.5 nmol/10^6 cells and the GSS is 4.0 ± 1.2 mU/10^6 cells. In the test with LNCaP cells, the GSSG amounted to 0.12 ± 0.05 nmol/10^6 cells, the SOD1 was 0.5 ± 0.1 U/10^6 cells and the SOD2 was determined as 0.01 ± 0.005 U/10^6 cells. For the same compound, in the test on SK-OV-3 cells, the CAT is reported as 1.8 ± 0.4 mU/10^6 cells, the GCL is on record as 18 ± 6 mU/10^6 cells, the GSH stood at 1.5 ± 0.7 nmol/10^6 cells and the GSS is 1.6 ± 0.4 mU/10^6 cells. Besides, in the test on SK-OV-3 cells, the GSSG turned out to be 0.2 ± 0.05 nmol/10^6 cells, the SOD1 was 0.1 ± 0.03 U/10^6 cells and the SOD2 turned out to be 0.01 ± 0.005 U/10^6 cells. Moreover, in the test with HT-29 cells, the CAT is reported as 0.3 ± 0.1 mU/10^6 cells, the GCL was 57 ± 17 mU/10^6 cells, the GSH came out at 8 ± 2 nmol/10^6 cells and the GSS is recorded as 6.5 ± 1.7 mU/10^6 cells. Moreover, in the test with HT-29 cells, the GSSG is on record as 0.05 ± 0.02 nmol/10^6 cells, the SOD1 turned out to be 0.2 ± 0.1 U/10^6 cells and the SOD2 was found to be 0.02 ± 0.01 U/10^6 cells.
